Reference: US20250306034A1, “Detection of Liver Disease” (Owlstone Medical Limited, priority 2022, published 2025)
Blank lines part the entries; values can stand above or below the compound they belong to.

Assays:
AKR1B10 = AKR1B10 (Homo sapiens, UniProt O60218); experiment: Bioproduct production in A549 WT and AKR1B10 KO cells, headspace GC-MS; conditions: for substrate of AKR1B10 (converted to 1-nonanol / trans-2-hexenol by this enzyme): WT versus AKR1B10 KO A549 cells
Source text: We have tested conversion of these substrates to the respective bioproduct 1-nonanol, trans-2-hexenol, hexenol, benzyl alcohol, and nerol, in a cancer cell line overexpressing AKR1B10.
A549 lung cancer cells were targeted with a CRISP/Cas system to ablate the protein expression of AKR1B10. Specific sgRNA for the AKR1B10 gene were co-transfected in cells with SpCas9 using ribonucleoproteins (RNPs). Clonal cells were generated by using limiting dilution. […] Resulting protein extract for WT and AKR1B10 KO cells were analysed using the Jess system and samples were probed with an AKR1B10 specific antibody, and with an antibody against α-Tubulin as independent reporter.
5×10^4 cells/mL of WT or 3 AKR1B10 KO clone cells were seeded in 24-well plates using cell culture media and let adhere and proliferate for 48 hours to confluence. Then, they were treated with 30 μM nonanal or 10 µM trans-2-hexenal. […] Headspace analysis was performed by using Centri, coupled with a GC-MS Orbi-trap system. Peak identification of nonanal, 1-nonanol, trans-2-hexenal, and trans-2-hexenol, was performed by comparing the peak against reference standards.

[1] = Blood levels of bioproducts in NASH rat model (CDHFD vs normal diet); conditions: for time after administration at which blood concentration increases / blood levels, CDHFD compared to ND rats: after oral 2-butanol 440 mg/Kg; for blood levels, CDHFD compared to ND rats: at 8 and 12 hours (480, 720 minutes)
Experimental: Blood samples were analysed using gas chromatography mass spectrometry (GC/-MS) or HPLC to measure metabolitic bioproducts benzoic acid, 3-hydroxy-2-butanone, 2-3-butanediol, and 2,3-pentanediol.
A total of 18 Wistar Han rats were acclimatized for 6 days. After that time, 9 rats remained on a normal diet, while 9 rats were switched to a choline deficient high fat diet (CDHFD) (L-Amino Acid Diet With 45 kcal % Fat With 0.1% Methionine, No Added Choline and 1% Cholesterol) (Research Diet, catalog #A16092003, https://researchdiets.com/en/formulas/a16092003). Rats had ad libitum access to food and water at all times unless differently specified. Body weight was measured every week.
Following 10 weeks of diet treatment, rats were randomised into groups each group composed of 3 healthy and 3 NASH rats for dosing with the different compounds.
Each group received an emulsion containing the compounds reported in table 1 at the indicated amount.
Each compound preparation was administered as an emulsion containing 15% Tween80 diluted in water to deliver the target amount in 5 mL/kg body weight. The emulsion was administered by oral gavage after the rats were fasted for 16 hours.
Blood samples were collected pre (0 min) and post compound administration at the following timepoints: 5 min, 15 min, 30 min, 1 h, 1.5 h, 2 h, 4 h, 8 h, 12 h, and 24 h.
At each time point, ˜200 μL blood samples were collected into EDTA-K2 tubes and placed on wet ice until centrifugation. Plasma was generated, from the blood samples, by centrifugation at approximately 4° C., 3,200 g for 5 min.
A total of 100 μL of plasma was collected respectively and transferred into Eppendorf tubes. Of these, 95 μL of plasma were spiked with 400 μL of internal standard in acetonitrile, vortexed for 30s and centrifuged for 15 min at 3220 g. A total of 100 μL of supernatant was used for compounds quantification, unless differently specified.
Response for each compound was normalized by the response of the internal standard, and absolute quantification was performed against a calibration curve.

[2] = test system: healthy and NASH hepatocytes; conditions: for level of probe in presence of NASH and healthy hepatocytes compared with absence of hepatocytes: 50 ng/μL in culture medium, aliquots 0.5 to 24 hours
Source text: Organ-on-a-chip containing healthy human hepatocytes and human hepatocytes treated to generate a model of a healthy or NASH liver disease were used in the following experiments. The Organ-on-a-chip containing healthy human hepatocytes are similar to the Organ-on-a-chip described above, but the experiment also included a model of NASH hepatocytes. The latter are obtained by treating healthy hepatocytes with Kupfer cells and hepatocytes stellate cells.
Primary human hepatocytes (PHHs), Kupffers cells (KCs), and hepatic stellate cells (HSCs) were seeded onto CN-Bio's PhysioMimix LC12 MPS culture plates at 6×10^5 cells for PHHs and 6×10^4 cells for HKCs and HSCs (necessary to induce the NASH phenotype) per well in CN-Bio's seeding medium. Throughout the experiment the cells were maintained at a medium flow rate of 1 μl/s. At days 4, 6, 8, 11, and 12 post seeding, medium aliquots were taken to measure LDH and albumin to assess cell health. At day 13 (24 hours post VOCs treatment), final medium collection for analysis was performed. Scaffolds were fixed in 4% formaldehyde for Oil Red O staining to assess lipid accumulation.
Primary hepatocytes were treated with 2-butanol and nonanal diluted in the hepatocytes culture medium at a concentration of 50 ng/μL. Aliquots of the culture medium were collected at 0.5, 1, 2, 4, 6, and 24 hours. The remaining medium-compound mix that was not added to the cells was considered as 0 timepoint reference. Headspace analysis was performed by using Centri, an automated system used to collect VOCs in the headspace, coupled with a GC-MS Orbi-trap system, a high-resolution mass spectrometer for detection and quantification of VOCs. Peak identification of 2-butanol, 2-butanone, nonanal, and 1-nonanol was performed by comparing the peak against a reference standard. A p-value<0.05 was considered as statistically significant.

[3] = Nonanal and 2-butanol washout in breath of volunteers; conditions: three volunteers; swallowed emulsion with 500 mg of Nonanal and 100 mg of 2-butanol; GC-MS
Experimental: An analysis of nonanal and 2-butanol washout of breath samples collected from three volunteers investigated before and after the intake of 500 mg of Nonanal and 100 mg of 2-butanol was performed. Three breath collections have been performed per each volunteer.
Three Volunteers participated in this trial for 3 times. They swallowed an emulsion containing 500 mg of Nonanal and 100 mg of 2-butanol and their breath was collected at 8 different time points before and after the emulsion intake using the ReCIVA, a face mask containing tubes for breath collection, and storage of exhaled VOCs.
Appearance on breath and conversion of the probes to their bioproducts was measured using gas-chromatography mass-spectrometry (GC-MS).

[4] = test system: healthy human hepatocytes; experiment: Metabolism of VOCs by healthy human hepatocytes (organ-on-a-chip)
Experimental: Organ-on-a chip samples were used.
Organ-on-a chip is a three-dimensional hepatocytes culturing system developed by a company called CN-Bio Ltd. Aliquots of media spiked with VOCs and collected at different time points are analysed using CENTRI-GC-MS a system for VOCs headspace detection and quantification. The experiment contained samples from healthy hepatocytes in the culture medium exposed to 2-butanol, nonanal at one of the concentrations: 50, 10, 2 and 0 ng/μL, and the control which is the culture medium without hepatocytes containing 2-butanol, and nonanal of the same concentration.
System suitability test (SST) and […] standards check (0, 2, 10 and 50 ng/μL), were run in duplicate at the beginning, in the middle and at the end of the sequence to mitigate against the risk of an instrumental deviation.
Empty tubes were also run at the beginning, in the middle and at the end of the sequence to mitigate against the risk of a carryover 0.5 μL Internal standards (1000 ng/μL) were spiked into each sample prior to analysis.

[5] = after oral 2-pentanone 160 mg/Kg
[6] = hepatocytes treated with 2-butanol and nonanal at 50 ng/μL

Chain of AKR1B10 (O60218 whole entry): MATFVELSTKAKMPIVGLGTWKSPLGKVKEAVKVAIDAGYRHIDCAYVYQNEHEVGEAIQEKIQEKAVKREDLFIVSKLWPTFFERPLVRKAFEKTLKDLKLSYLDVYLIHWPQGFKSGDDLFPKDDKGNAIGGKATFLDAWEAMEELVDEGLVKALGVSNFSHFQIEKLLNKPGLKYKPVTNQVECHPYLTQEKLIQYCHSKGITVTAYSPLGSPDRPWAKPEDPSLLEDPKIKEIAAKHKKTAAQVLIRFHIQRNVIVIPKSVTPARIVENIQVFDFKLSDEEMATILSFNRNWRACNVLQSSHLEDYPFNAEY

production of 1-nonanol, levels in WT compared to AKR1B10 KO cells (AKR1B10; human, 30 μM): 3 times higher
Structure (SMILES): CCCCCCCCCO [1-nonanol]

Structure (SMILES): CC(O)C(C)O (centres unmarked) [2,3-butanediol]
time after administration at which blood concentration increases [1]: 240 min
blood levels, CDHFD compared to ND rats [1]: higher levels in CDHFD compared to ND rats

time after administration after which blood levels increased [1, 5]: 1 h
Structure (SMILES): CCC(O)C(C)O (centres unmarked) [2,3-pentanediol]
blood levels, CDHFD rats compared to ND rats [1, 5]: higher in CDHFD rats compared to ND rats after 4 hours

Structure (SMILES): CCC(C)O (centres unmarked) [2-butanol]
level of probe in presence of NASH and healthy hepatocytes compared with absence of hepatocytes [2]: more marked reduction at 24 h
detection in breath samples after emulsion intake [3]: detected
level of probe over 24 hours in media alone and media with hepatocytes ([4]; 50, 10, 2 and 0 ng/μL, healthy hepatocytes, headspace GC-MS): a decrease both in media alone and media with hepatocytes

Structure (SMILES): CCC(C)=O [2-butanone]
area of the bioproduct peak, NASH versus healthy hepatocytes [2, 6]: the area under the peak for healthy is larger than for NASH
production of bioproduct, NASH versus healthy hepatocytes [2, 6]: Healthy hepatocytes showed higher production of 2-butanone at 6 hours
level of bioproduct over time in media with hepatocytes ([4]; hepatocytes exposed to nonanal and 2-butanol, 50, 10, 2 and 0 ng/μL): a spike and subsequent decrease

time after administration at which blood concentration increases [1]: 240 min
Structure (SMILES): CC(=O)C(C)O (centres unmarked) [3-hydroxy-2-butanone]
blood levels, CDHFD compared to ND rats [1]: higher levels in CDHFD compared to ND rats

Structure (SMILES): O=Cc1ccccc1 [benzylaldehyde]
conversion of the substrate to the respective bioproduct (AKR1B10; cancer cell line overexpressing AKR1B10, substrates added to the culture media): conversion to the bioproducts in a timeframe of 6 hours

Structure (SMILES): CC(C)=CCCC(C)=CC=O [citral]
conversion of the substrate to the respective bioproduct (AKR1B10; human, 6 h): conversion to the bioproducts in a timeframe of 6 hours

Structure (SMILES): CCCCCC=O [hexanal]
conversion of the substrate to the respective bioproduct (AKR1B10; human, 6 h): conversion to the bioproducts in a timeframe of 6 hours

Structure (SMILES): CCCCCCCCC=O [nonanal]
level of probe in presence of NASH and healthy hepatocytes compared with absence of hepatocytes [2]: more marked reduction
bioproduct generation after ablation of AKR1B10 or treatment of the cells with AKRs inhibitors (AKR1B10): reduced or absent bioproduct generation
substrate of AKR1B10 (converted to 1-nonanol / trans-2-hexenol by this enzyme) (AKR1B10): substrates for AKR1B10
level of nonanal in medium added to WT or AKR1B10 KO cell lines, versus medium without cells (AKR1B10; human, 3 h, 30 μM): increased reduction over 3 hours
conversion of the substrate to the respective bioproduct (AKR1B10; human, 6 h): conversion to the bioproducts in a timeframe of 6 hours

bioproduct generation after ablation of AKR1B10 or treatment of the cells with AKRs inhibitors (AKR1B10): reduced or absent bioproduct generation
substrate of AKR1B10 (converted to 1-nonanol / trans-2-hexenol by this enzyme) (AKR1B10): substrates for AKR1B10
production of bioproduct of trans-2-hexenal, levels in WT compared to AKR1B10 KO cells (AKR1B10; human, 10 μM): 10 times higher
level of trans-2-hexenal in medium added to WT or AKR1B10 KO cell lines, versus medium without cells (AKR1B10; human, 3 h, 10 μM): increased reduction over 3 hours
Structure (SMILES): CCC/C=C/C=O [trans-2-hexenal]
conversion of the substrate to the respective bioproduct (AKR1B10; human, 6 h): conversion to the bioproducts in a timeframe of 6 hours
